These results are taken from patent US11667649B2, “Heteroaromatic macrocyclic ether chemotherapeutic agents” (Nuvalent, Inc., priority 2020, dated 2023).

The test system of this test is TPM3-NTRK1-wt IC50 / primary target (e.g. CD74-ROS1-wt) IC50, Ba/F3 cells. As to the kind of experiment: Cell assay TRKA selectivity (TRKA potency divided by primary target potency). The format is cell-based. The settings on record: for TPM3-NTRK1-wt/CD74-ROS1-G2032R: TRKA selectivity ratio: TPM3-NTRK1-wt IC50 / CD74-ROS1-G2032R IC50, Ba/F3 cells; for TPM3-NTRK1-wt/CD74-ROS1-wt: TRKA selectivity ratio: TPM3-NTRK1-wt IC50 / CD74-ROS1-wt IC50, Ba/F3 cells; for TPM3-NTRK1-wt/EML4-ALK-L1196M-G1202R: TRKA selectivity ratio: TPM3-NTRK1-wt IC50 / EML4-ALK-L1196M-G1202R IC50, Ba/F3 cells; for TPM3-NTRK1-wt/EML4-ALK-wt: TRKA selectivity ratio: TPM3-NTRK1-wt IC50 / EML4-ALK-wt IC50, Ba/F3 cells. The procedure, abridged:
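IL-3-independent Ba/F3 lines stably expressing TPM3-TRKA or the primary fusion (e.g. CD74-ROS1 wt) were exposed to 3-fold compound dilutions for 72 h. Viability was read by CellTiter-Glo luminescence, with IC50 from four-parameter logistic fit. Selectivity is TPM3-NTRK1 IC50 divided by primary-target IC50, binned A (>30-fold) to D (<1).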

In the case of `COc1cc2n(n1)-c1ccc(F)cc1[C@@H](C)Oc1cc(cnc1N)-c1c(c(C)nn1CC1CC1)C2` [Example 124, (19R)-3-(cyclopropylmethyl)-16-fluoro-10-methoxy-5,19-dimethyl-20-oxa-3,4,11,12,23-pentaazapentacyclo[19.3.1.0^2,^6.0^8,^12.0^13,^18]pentacosa-1(24),2(6),4,8,10,13,15,17,21(25),22-decaen-22-amine], the TPM3-NTRK1-wt/CD74-ROS1-G2032R result is “A (bin A for very high selectivity, ratio>30-fold)”; the TPM3-NTRK1-wt/CD74-ROS1-wt result is reported as “A (bin A for very high selectivity, ratio>30-fold)”; the TPM3-NTRK1-wt/EML4-ALK-L1196M-G1202R result is “A (bin A for very high selectivity, ratio>30-fold)”; the TPM3-NTRK1-wt/EML4-ALK-wt entry is on record as “A (bin A for very high selectivity, ratio>30-fold)”.

As to `Cc1nn(CC2CC2)c2c1Cc1cc(C(F)F)nn1-c1ccc(F)cc1[C@@H](C)Oc1cc-2cnc1N` [Example 125, (19R)-3-(cyclopropylmethyl)-10-(difluoromethyl)-16-fluoro-5,19-dimethyl-20-oxa-3,4,11,12,23-pentaazapentacyclo[19.3.1.0^2,^6.0^8,^12.0^13,^18]pentacosa-1(24),2(6),4,8,10,13,15,17,21(25),22-decaen-22-amine], the TPM3-NTRK1-wt/CD74-ROS1-G2032R entry was “A (bin A for very high selectivity, ratio>30-fold)”; the TPM3-NTRK1-wt/CD74-ROS1-wt result was “A (bin A for very high selectivity, ratio>30-fold)”; the TPM3-NTRK1-wt/EML4-ALK-L1196M-G1202R entry is given as “A (bin A for very high selectivity, ratio>30-fold)”; the TPM3-NTRK1-wt/EML4-ALK-wt entry was “A (bin A for very high selectivity, ratio>30-fold)”.

As to `Cc1cc2n(n1)-c1ccc(F)cc1COc1cc(cnc1N)-c1c(cnn1CC1CC1)C2` [Example 126, 3-(cyclopropylmethyl)-16-fluoro-10-methyl-20-oxa-3,4,11,12,23-pentaazapentacyclo[19.3.1.0^2,^6.0^8,^12.0^13,^18]pentacosa-1(24),2(6),4,8,10,13,15,17,21(25),22-decaen-22-amine], the TPM3-NTRK1-wt/CD74-ROS1-G2032R entry is on record as “A (bin A for very high selectivity, ratio>30-fold)”; the TPM3-NTRK1-wt/CD74-ROS1-wt result was “A (bin A for very high selectivity, ratio>30-fold)”; the TPM3-NTRK1-wt/EML4-ALK-L1196M-G1202R entry is “A (bin A for very high selectivity, ratio>30-fold)”; the TPM3-NTRK1-wt/EML4-ALK-wt result is reported as “A (bin A for very high selectivity, ratio>30-fold)”.

Take `Cc1nn(CC2CC2)c2c1Cc1cn(C)nc1-c1ccc(F)cc1COc1cc-2cnc1N` [Example 127, 3-(cyclopropylmethyl)-16-fluoro-5,10-dimethyl-20-oxa-3,4,10,11,23-pentaazapentacyclo[19.3.1.0^2,^6.0^8,^12.0^13,^18]pentacosa-1(24),2(6),4,8,11,13,15,17,21(25),22-decaen-22-amine]: the TPM3-NTRK1-wt/CD74-ROS1-G2032R result is recorded as “A (bin A for very high selectivity, ratio>30-fold)”; the TPM3-NTRK1-wt/CD74-ROS1-wt result is recorded as “A (bin A for very high selectivity, ratio>30-fold)”; the TPM3-NTRK1-wt/EML4-ALK-L1196M-G1202R entry was “A (bin A for very high selectivity, ratio>30-fold)”; the TPM3-NTRK1-wt/EML4-ALK-wt entry is “A (bin A for very high selectivity, ratio>30-fold)”.

Regarding `C[C@H]1Oc2cc(cnc2N)-c2c(nnn2CC2CC2)Cc2cc(C(F)(F)F)nn2-c2ccc(F)cc21` [Example 128, (19R)-3-(cyclopropylmethyl)-16-fluoro-19-methyl-10-(trifluoromethyl)-20-oxa-3,4,5,11,12,23-hexaazapentacyclo[19.3.1.0^2,^6.0^8,^12.0^13,^18]pentacosa-1(24),2(6),4,8,10,13,15,17,21(25),22-decaen-22-amine], the TPM3-NTRK1-wt/CD74-ROS1-G2032R result is “A (bin A for very high selectivity, ratio>30-fold)”; the TPM3-NTRK1-wt/CD74-ROS1-wt result is listed as “A (bin A for very high selectivity, ratio>30-fold)”; the TPM3-NTRK1-wt/EML4-ALK-L1196M-G1202R entry is recorded as “C (bin C for moderate selectivity, ratio≥1)”; the TPM3-NTRK1-wt/EML4-ALK-wt result is listed as “B (bin B for high selectivity, ratio>10-fold)”.
